From US20180153995A1, “USE OF ANTIMICROBIAL POLYMERS FOR RE-SENSITIZATION OF MICROORGANISMS UPON EMERGENCE OF RESISTANCE TO ANTI-MICROBIAL AGENTS” (Technion Research & Development Foundation Limited, priority 2008, published 2018)
Read-outs that look alike come from different tables or passages of the source.

What was measured:
[1] = tested on: S. aureus 15819; experiment: Antibiotic MIC by microdilution with or without sub-MIC polymer; type: cell-based, Staphylococcus aureus; details: S. aureus 15819
[2] = tested on: S. aureus 43300; experiment: as above; type: cell-based, Staphylococcus aureus
[3] = tested on: E. coli N282 (L4 mutation); type: cell-based, Escherichia coli; details: E. coli N282 L4 mutation
[4] = tested on: MRSA 15852; type: cell-based, Staphylococcus aureus; details: S. aureus 15852
Protocol: The fractionary inhibitory (FIC) concentration index for combinations of two antimicrobial agents was calculated as follows: FIC index=FICA+FICB=A/MICA+B/MICB where A and B are the MIC values of agent A and agent B in the combination, MICA and MICB are the MICs of agent A and agent B alone, and FICA and FICB are the FICs of agent A and agent B.
The FIC indexes were interpreted as follows: less than 0.5 indicates a clear re-sensitizing effect; from 0.5 to 4 indicates a marginal or null re-sensitizing effect; and over 4 indicates antagonism.

[5] = tested on: P. aeruginosa 8732; experiment: Antibiotic MIC by microdilution with or without sub-MIC polymer; type: cell-based, Pseudomonas aeruginosa; details: P. aeruginosa 8732
Protocol: (§1) MICs were determined by microdilution susceptibility testing in 96-well plates (by Nunc) using inocula of 10^5 bacteria per ml. Cell populations were evaluated by optical density measurements at 620 nm and were calibrated against a set of standards. Hundred (100) μl of a bacterial suspension were added to 100 μl of culture medium (control) or to 100 μl of culture medium containing various polymer concentrations in 2-fold serial dilutions. Inhibition of proliferation was determined by optical density measurements at 620 nm after an incubation period of 24 hours at 37° C.
Inhibition of proliferation was determined by optical density measurements at 620 nm after an incubation period of 24 hours at 37° C.

[6] = tested on: P. mirabilis 1285; type: cell-based, Proteus mirabilis
[7] = tested on: P. mirabilis 1285; type: cell-based, Proteus mirabilis; details: no polymer (None), Table 12
Protocol: as §1
100 μl of a bacterial suspension were added to 100 μl of culture medium (control) or to 100 μl of culture medium containing various antibiotic and C14(9-ene)KKNC12KNH2 (SEQ ID NO: 5) concentrations in 2-fold serial dilutions. Inhibition of proliferation was determined by optical density measurements at 620 nm after an incubation period of 24 hours at 37° C.

[8] = +¼ MIC (1.6 μM) C12(5-ene)KKNC12KNH2
[9] = +¼ MIC (1.6 μM) C12K(KNC12K)3NH2
[10] = +⅓ MIC (2.1 μM) C12K(KNC12K)3NH2
[11] = +¼ MIC (1.6 μM) C12K(KNC12K)2NH2
[12] = +¼ MIC (1.6 μM) C16(9-ene)KKNC12KNH2
[13] = +½ MIC (3.12 μM) C12K(KNC12K)2NH2
[14] = +⅓ MIC (2.1 μM) C12K(KNC12K)2NH2
[15] = +½ MIC (3.12 μM) C12(5-ene)KKNC12KNH2
[16] = +⅓ MIC (2.1 μM) C12(5-ene)KKNC12KNH2
[17] = +½ MIC (3.12 μM) C16(9-ene)KKNC12KNH2
[18] = +⅓ MIC (2.1 μM) C16(9-ene)KKNC12KNH2

CN(C)[C@@H]1C(O)=C(C(N)=O)C(=O)[C@@]2(O)C(O)=C3C(=O)c4c(O)cccc4[C@@](C)(O)[C@H]3C[C@@H]12 [Tetracycline, tetracycline]
Antibiotic MIC [1, 8]: 0.25 µg/mL
Antibiotic MIC [1, 9]: 0.5 µg/mL
Antibiotic MIC ([1]; +¼ MIC (1.6 μM) C12KKNC12KNH2): 0.5 µg/mL
Antibiotic MIC ([1]; +½ MIC (3.12 μM) C12KKNC12KNH2): 0.5 µg/mL
Antibiotic MIC [1, 10]: 0.25 µg/mL
Antibiotic MIC ([1]; +⅓ MIC (2.1 μM) C12KKNC12KNH2): 0.5 µg/mL
Antibiotic MIC ([1]; no polymer (None), Table 8): 0.25 µg/mL
Antibiotic MIC ([1]; no polymer (None), Table 11): 0.5 µg/mL
Antibiotic MIC ([1]; no polymer (None), Table 13): 0.5 µg/mL
Antibiotic MIC [2, 11]: 0.5 µg/mL
Antibiotic MIC ([2]; +¼ MIC (1.6 μM) C12KKNC12KNH2): 0.5 µg/mL
Antibiotic MIC [2, 12]: 0.25 µg/mL
Antibiotic MIC [2, 13]: 0.5 µg/mL
Antibiotic MIC ([2]; +½ MIC (3.12 μM) C12KKNC12KNH2): 0.5 µg/mL
Antibiotic MIC [2, 14]: 0.5 µg/mL
Antibiotic MIC ([2]; +⅓ MIC (2.1 μM) C12KKNC12KNH2): 0.5 µg/mL

CC[C@H]1OC(=O)[C@H](C)[C@@H](O[C@H]2C[C@@](C)(OC)[C@@H](O)[C@H](C)O2)[C@H](C)[C@@H](O[C@@H]2O[C@H](C)C[C@H](N(C)C)[C@H]2O)[C@](C)(O)C[C@@H](C)C(=O)[C@H](C)[C@@H](O)[C@]1(C)O [Erythromycin, erythromycin]
Antibiotic MIC [1, 8]: 0.25 µg/mL
Antibiotic MIC [1, 9]: 0.5 µg/mL
Antibiotic MIC ([1]; +¼ MIC (1.6 μM) C12KKNC12KNH2): 0.5 µg/mL
Antibiotic MIC [1, 15]: 0.25 µg/mL
Antibiotic MIC ([1]; +½ MIC (3.12 μM) C12KKNC12KNH2): 0.5 µg/mL
Antibiotic MIC [1, 16]: 0.25 µg/mL
Antibiotic MIC [1, 10]: 0.25 µg/mL
Antibiotic MIC ([1]; +⅓ MIC (2.1 μM) C12KKNC12KNH2): 0.5 µg/mL
Antibiotic MIC ([1]; no polymer (None), Table 8): 0.25 µg/mL
Antibiotic MIC ([1]; no polymer (None), Table 11): 0.5 µg/mL
Antibiotic MIC ([1]; no polymer (None), Table 13): 0.5 µg/mL
Antibiotic MIC [2, 8]: 512 µg/mL
Antibiotic MIC [2, 11]: >512 µg/mL
Antibiotic MIC ([2]; +¼ MIC (1.6 μM) C12KKNC12KNH2): >512 µg/mL
Antibiotic MIC ([2]; +¼ MIC (1.6 μM) C14(9-ene)KKNC12KNH2): >512 µg/mL
Antibiotic MIC [2, 12]: 512 µg/mL
Antibiotic MIC [2, 13]: >512 µg/mL
Antibiotic MIC ([2]; +½ MIC (3.12 μM) C12KKNC12KNH2): >512 µg/mL
Antibiotic MIC ([2]; +½ MIC (3.12 μM) C14(9-ene)KKNC12KNH2): >512 µg/mL
Antibiotic MIC [2, 17]: 512 µg/mL
Antibiotic MIC [2, 16]: 512 µg/mL
Antibiotic MIC [2, 14]: >512 µg/mL
Antibiotic MIC ([2]; +⅓ MIC (2.1 μM) C12KKNC12KNH2): >512 µg/mL
Antibiotic MIC ([2]; +⅓ MIC (2.1 μM) C14(9-ene)KKNC12KNH2): >512 µg/mL
Antibiotic MIC [2, 18]: 512 µg/mL
Antibiotic MIC ([2]; no polymer (None), Table 8): 512 µg/mL
Antibiotic MIC ([2]; no polymer (None), Table 9): >512 µg/mL
Antibiotic MIC ([2]; no polymer (None), Table 10): 512 µg/mL
Antibiotic MIC ([2]; no polymer (None), Table 11): >512 µg/mL
Antibiotic MIC ([2]; no polymer (None), Table 12): >512 µg/mL
Antibiotic MIC ([3]; +¼ MIC C12K(NC8K)5NH2): 512 µg/mL
Antibiotic MIC ([3]; +¼ MIC C12K(NC8K)7NH2): 512 µg/mL
Antibiotic MIC ([3]; +½ MIC C12K(NC8K)5NH2): 8 to 16 µg/mL
Antibiotic MIC ([3]; +⅓ MIC C12K(NC8K)7NH2): 512 µg/mL
Antibiotic MIC ([3]; no OAK, Table 18): 512 µg/mL
Antibiotic MIC ([3]; no OAK, Table 19): 512 µg/mL
Antibiotic MIC [4, 8]: >512 µg/mL
Antibiotic MIC ([4]; +¼ MIC (1.6 μM) C12KKNC12KNH2): >512 µg/mL
Antibiotic MIC [4, 15]: >512 µg/mL
Antibiotic MIC ([4]; +½ MIC (3.12 μM) C12KKNC12KNH2): >512 µg/mL
Antibiotic MIC [4, 16]: >512 µg/mL
Antibiotic MIC ([4]; +⅓ MIC (2.1 μM) C12KKNC12KNH2): >512 µg/mL
Antibiotic MIC ([4]; no polymer (None), Table 8): >512 µg/mL
Antibiotic MIC ([4]; no polymer (None), Table 11): >512 µg/mL

gentamicin
Antibiotic MIC [1, 8]: 1 µg/mL
Antibiotic MIC [1, 9]: 1 µg/mL
Antibiotic MIC ([1]; +¼ MIC (1.6 μM) C12KKNC12KNH2): 1 µg/mL
Antibiotic MIC [1, 15]: 1 µg/mL
Antibiotic MIC ([1]; +½ MIC (3.12 μM) C12K(KNC12K)3NH2): 0.5 µg/mL
Antibiotic MIC ([1]; +½ MIC (3.12 μM) C12KKNC12KNH2): 1 µg/mL
Antibiotic MIC [1, 16]: 1 µg/mL
Antibiotic MIC [1, 10]: 1 µg/mL
Antibiotic MIC ([1]; +⅓ MIC (2.1 μM) C12KKNC12KNH2): 1 µg/mL
Antibiotic MIC ([1]; no polymer (None), Table 8): 1 µg/mL
Antibiotic MIC ([1]; no polymer (None), Table 11): 1 µg/mL
Antibiotic MIC ([1]; no polymer (None), Table 13): 1 µg/mL
Antibiotic MIC [5, 12]: 4 µg/mL
Antibiotic MIC [5, 17]: 4 µg/mL
Antibiotic MIC [5, 18]: 4 µg/mL
Antibiotic MIC ([5]; no polymer (None), Table 10): 4 µg/mL
Antibiotic MIC [6, 11]: 32 µg/mL
Antibiotic MIC [6, 13]: 32 µg/mL
Antibiotic MIC [6, 14]: 32 µg/mL
Antibiotic MIC [7]: 32 µg/mL
Antibiotic MIC [2, 12]: 64 µg/mL
Antibiotic MIC [2, 17]: 32 to 64 µg/mL
Antibiotic MIC [2, 18]: 64 µg/mL
